The values that follow come from US4107308A, “Imidazo[1,5-d]-as-triazines” (American Cyanamid Company, priority 1977, dated 1978).

The structures appear in SMILES notation.

Assay [1] deals with spontaneous hypertensive rats. Kind of assay: Anti-hypertensive test in conscious spontaneous hypertensive rats, mean arterial blood pressure by femoral artery puncture. It counts as in vivo, rat. The following applies: 100 mg./kg. by gavage in 2% starch, second identical dose at the 24th hour, vehicle controls 166. How it is done: These compounds have been tested pharmacologically and found to have such properties with a desirable wide spread between does producing lowered blood pressure and toxic symptoms. In determining this effect of these compounds on hypertension, adult male, 16-20 weeks old, spontaneous hypertensive rats from Taconic Farms, Germantown, New York, weighing about 300 grams are used. The rats are dosed by gavage with the test compounds at the indicated dose in mg. per kg. of body weight. All doses of drug were suspended in 2% starch (2 ml./kg.). A second identical dose of the test compound is given at the 24th hour. The mean arterial blood pressure (MAP) of the conscious rats is measured directly by femoral artery puncture at the 28th hour.

In assay [2] the test system is cyclic-AMP phosphodiesterase (mouse skin PDE). Kind of assay: Mouse skin phosphodiesterase (PDE) inhibition test (A). It counts as biochemical. The arrangement: key: Active: A compound is considered active if it inhibits more than theophylline, that is, to 50% of control of 1 mM concentration of compound, or to 80% of control for 0.05 mM concentration of compound. The following applies: final concentration of test compound 10 μg./ml.; epidermal homogenate supernatant of hairless mice.

For `c1cc(Nc2nncc3cncn23)n[nH]1` [4-(3-Pyrazolylamino)-imidazo[1,5-d]-as-triazine], the “MAP (mm. Hg) 28th hour” value in assay [1] was determined as 134 mm. Hg. Moreover, the “Mouse Skin Phosphodiesterase (A)” value in assay [2] is on record as “Active”.
With `CN(C)CCNc1nncc2cncn12` [4-[(2-Dimethylaminoethyl)amino]-imidazo[1,5-d]-as-triazine], in assay [2], the “Mouse Skin Phosphodiesterase (A)” value is recorded as “Active”.
`CNc1nncc2cncn12` [4-methylamino-imidazo[1,5-d]-as-triazine, 4-Methylamino-imidazo[1,5-d]-as-triazine]: the “MAP (mm. Hg) 28th hour” value in assay [1] worked out at 131 mm. Hg.
Regarding `CCCc1nc(C)c2cnnc(SC)n12` [Example 61, 8-Methyl-4-(methylthio)-6-propylimidazo[1,5-d]-as-triazine], the herbicidal activity result in the assay “Herbicidal activity” is “possesses herbicidal activity”.
